Assay results taken from patent publication US20240174622A1, “COMPOUND AND RADIOACTIVE LABELING COMPOUND” (NIHON MEDI-PHYSICS CO., LTD., priority 2021, published 2024).

Legend:
[1] = compared with one hour after administration; EJNMMI Res 2012, J Nucl Med 2017; cited from earlier work
[2] = system: LNCaP tumor; format: in vivo, mouse; conditions: for time after administration at which a significant difference in tumor volume from the saline-administered group was observed: 3.7 MBq, tail vein
Procedure: LNCaP tumor-implanted mice were administered saline solutions (100 μL) of [^90Y]Y-PSMA-DA1 (3.7 MBq) or [^90Y]Y-PSMA-DB (3.7 MBq) obtained by the method described above from the tail vein (n=7). As the control group, LNCaP tumor-implanted mice were administered 100 μL of saline from the tail vein (n=7). After administration of the ^90Y-labeling compound, the tumor volume and body weight were measured 3 times per week. The tumor volume was calculated based on the calculation formula “(tumor volume)=[(long side) x (short side) 2/2]”.

[3] = system: LNCaP tumor; assay: Evaluation of suppressing tumor growth by 225Ac-labeling compound; format: in vivo, mouse; conditions: 20 kBq, tail vein
Procedure: [^225Ac]Ac-PSMA-DA1 (20 kBq) or [^225Ac]Ac-PSMA-DB (20 kBq) obtained by the above method was dissolved in 5% ethanol-containing acetate buffer (158 mM, pH 6.5, 100 μL), and the solution was administered to LNCaP tumor-transplanted mice from the tail vein (n=6 or 5). As the control group, 100 μL of 5% ethanol-containing acetate buffer (158 mM, pH 6.5) was administered to LNCaP tumor-transplanted mice from the tail vein (n=4).
After administration of the ^225Ac-labeling compound, the tumor volume and body weight were measured 2 times per week. The tumor volumes on the day when administration of ^225Ac-labeling compound was started were 75.3±26.0, 80.6±20.8, and 91.1±15.9 mm^3 for the groups administered [^225Ac]Ac-PSMA-DA1, [^225Ac]Ac-PSMA-DB, and 5% ethanol-containing acetate buffer, respectively.

For `O=C([O-])CN(CCN(CC(=O)[O-])Cc1cc(CCC(=O)NCCCCCC(=O)NCCCC[C@H](NC(=O)N[C@@H](CCC(=O)O)C(=O)O)C(=O)O)ccc1[O-])Cc1cc(CCC(=O)O)ccc1[O-].[68Ga+3].[OH3+]` [[^68Ga]Ga-PSMA-11], the “kidney accumulation of known radiolabeled compound” value [1] is given as 139 % ID/g.
For `O=C([O-])CN1CCN(C(CCC(=O)NCCCC[C@H](NC(=O)N[C@@H](CCC(=O)O)C(=O)O)C(=O)O)C(=O)[O-])CCN(CC(=O)[O-])CCN(C(CCC(=O)N[C@@H](CCCCNC(=O)CCCc2ccc(I)cc2)C(=O)O)C(=O)[O-])CC1.[90Y+3]` (stereo partly drawn) [[^90Y]Y-PSMA-DA1], the “time after administration at which a significant difference in tumor volume from the saline-administered group was observed” value [2] was 9 days and the “body weight of the mice” value ([2]; mouse, in vivo) was “slightly reduced”.
For `O=C([O-])CN1CCN(C(CCC(=O)NCCCC[C@H](NC(=O)N[C@@H](CCC(=O)O)C(=O)O)C(=O)O)C(=O)[O-])CCN(CC(=O)[O-])CCN(C(CCC(=O)Nc2ccccc2)C(=O)[O-])CC1.[90Y+3]` (stereo partly drawn) [[^90Y]Y-PSMA-DB, reference compound], the “time after administration at which a significant difference in tumor volume from the saline-administered group was observed” value [2] was 33 days.
For `O=C([O-])CN1CCN(C(CCC(=O)NCCCC[C@H](NC(=O)N[C@@H](CCC(=O)O)C(=O)O)C(=O)O)C(=O)[O-])CCN(CC(=O)[O-])CCN(C(CCC(=O)Nc2ccccc2)C(=O)[O-])CC1.[225Ac+3]` (stereo partly drawn) [[^225Ac]Ac-PSMA-DB, reference compound], the body weight reduction [3] was “no sign of recovery” and the “tumor growth compared with the control group” value [3] was “significantly suppressed”.
